Assay: Inhibition Assay: A fusion protein comprising glutathione S transferase (GST) and human IRE-1α (GST-IRE-1α) obtained from a 500 ml baculovirus-infected insect cell culture can be used to measure IRE-1α activity in vitro.Five ul of a reaction mixture comprising 1x reaction buffer (5x reaction buffer is 100 mM Hepes pH 7.5, 250 mM KOAc, 2.5 mM MgCl2), 3 mM DTT, and 0.4% polyethylene glycol water is added to each well of 384 well plates. Twenty-five nanoliters of a 1 mM test compound solution are added to test wells. Three ul of a 128 ng/ml IRE-1α preparation are added to each test well and to positive control wells (final concentration 5.82 ng/well). Negative control wells contain only reaction mixture and test compound.After spinning the plates at 1200 rpm for 30 seconds, 3 ul of an IRE-1α human mini-XBP-1 mRNA stem-loop substrate 5'-[…]-3' (SEQ ID NO:1), labeled with the fluorescent dye Cy5 at the 5' end and Black Hole Quencher 2 (BH2) at the 3' end, are added to each well of a control plate. The plates are again spun at 1200 rpm for 30 seconds. Final concentrations for the assay are: 63 nM IRE-1α substrate, 5.82 ng IRE-1α protein, and 2.5 uM test compound. The plates are covered with lids and incubated for one hour at 30° C. The plates are then transferred to an ACQUEST microplate reader. Data is analyzed using data analysis software, and the percent activity of IRE-1α is calculated.

Row | SMILES | IC50 [nM]
1 | O=C(C1CCN(c2ccc3ccc(O)c(CO)c3c2)C1)N1CCCCC1 (configuration not stated) | > 1000
2 | OCc1c(O)ccc2cc(N3CCOCC3)ccc12 | > 1000
3 | OCc1c(O)ccc2ccc(N3CCCC3)cc12 | > 1000
4 | CN1CCN(C2CCN(c3ccc4ccc(O)c(CO)c4c3)C2)CC1 (configuration not stated) | > 1000
5 | CN(Cc1ccccc1)C(=O)C1CCN(c2ccc3ccc(O)c(CO)c3c2)C1 (configuration not stated) | > 1000
6 | CN1CCN(c2ccc3ccc(O)c(CO)c3c2)CC1 | > 1000
7 | CN(Cc1ccccc1)C1CCN(c2ccc3c(C=O)c(O)ccc3c2)C1 (configuration not stated) | > 1000
